Data: patent US20240317743A1, “Solid Forms of BCL-2 Inhibitors, Method of Preparation, and Use Thereof” (BeiGene, Ltd., priority 2021, published 2024)
Converted amounts (≈) assume the structure as drawn.

Tests used:
Type in all cases: physicochemical
[1] = DVS (Method B) water sorption / hygroscopicity; conditions: 25° C.; for water sorption: at 95% RH
Description: DVS of Form A and U was also measured via an SMS (Surface Measurement Systems) DVS Intrinsic (Method B). The relative humidity at 25° C. was calibrated against deliquescence point of LiCl, Mg(NO3)2, and KCL. Parameters for DVS test are listed as follows. [table]

[2] = Long term and accelerated physical and chemical stability test, impurities by HPLC
Description: Long term and accelerated stability studies were conducted in different physical forms of Compound 1, by storing the samples at 25±2° C./60±5% RH and 40±2° C./75±5% RH conditions for up to 6 months. And, the content of the total impurities of each sample was tested by HPLC.

[3] = Solid form solubility, concentration by HPLC at 24 hours; conditions: listed as Compound 1 Form A
Description: The solubility of Compound 1 in different physical forms was tested in water, 0.1 N HCl, pH 4.5 acetate buffer and pH 6.8 phosphate buffer. At 24 hours of time point, the concentration of Compound 1 was detected by HPLC.

[4] = Physical stability: storage under humidity/temperature, form checked by XRPD
Description: To evaluate the physicochemical stability, store 1˜3 mg of Forms B, S, M, R, F, H and N samples were stored under 25° C./60% RH or 40° C./75% RH conditions for one week (unsealed) or 80° C. condition for 24 hrs (sealed).

[5] = Storage at RT, form checked by XRPD overlay
Description: Form K was speculated as a methyl acetate solvate.
Thus, Form L was speculated as a metastable anhydrate/hydrate which could be de-solvated from the wet cake from the solvent system.
(peak) before decomposition (FIG. 16B). According to the integration of ^1H NMR result (FIG. 16C), the theoretical weight of chlorobenzene was calculated as 9.8%, which matched with the TGA weight loss. […] After heating the sample to 140° C., more diffraction peaks disappeared. Combined with the TGA, ^1H NMR data and heating experiment, Form P was speculated as a chlorobenzene solvate.

[6] = 25±2° C./60±5% RH and 40±2° C./75±5% RH, up to 6 months
[7] = 25° C./60% RH, one week, unsealed
[8] = 40° C./75% RH, one week, unsealed

CC(C)c1ccccc1[C@@H]1CCCN1C1CC2(CCN(c3ccc(C(=O)NS(=O)(=O)c4ccc(NCC5CCC(C)(O)CC5)c([N+](=O)[O-])c4)c(Oc4cnc5[nH]ccc5c4)c3)CC2)C1 (stereo partly drawn) [Form A, 2-((1H-pyrrolo[2,3-b]pyridin-5-yl)oxy)-N-((4-((((1r,4r)-4-hydroxy-4-methylcyclohexyl)methyl)amino)-3-nitrophenyl)sulfonyl)-4-(2-((S)-2-(2-isopropylphenyl)pyrrolidin-1-yl)-7-azaspiro[3.5]nonan-7-yl)benzamide]
water sorption ([1]; listed as Compound 1 form A): 0.4%
hygroscopicity ([1]; listed as Compound 1 form A): slightly hygroscopic
crystal form change [2, 6]: no crystal form and optical purity changes
optical purity change [2, 6]: no crystal form and optical purity changes
change of chemical purity ([2]; 25±2° C./60±5% RH and 40±2° C./75±5% RH, up to 6 months, listed as Compound 1 Form A): no significant change
total content of impurities ([2]; after 6 months at 40±2° C./75±5% RH, listed as Compound 1 Form A): 0.52%
content of solvent EA ([2]; after storage in the stability study): ~8.8 ×10^4 ppm
content of solvent EA ([2]; before storage (initial)): about 9.5 ×10^4 ppm
total content of impurities ([2]; before storage (initial), listed as Compound 1 Form A): 0.40%
solubility ([3]; 0.1 N HCl): 29.36 µg/mL (≈ 33 µM)
solubility ([3]; pH 4.5 acetate buffer): 0.76 µg/mL (≈ 0.854 µM)
solubility ([3]; pH 6.8 phosphate buffer): 0.43 µg/mL (≈ 0.483 µM)
solubility ([3]; water): 0.37 µg/mL (≈ 0.416 µM)

CC(C)c1ccccc1[C@@H]1CCCN1C1CC2(CCN(c3ccc(C(=O)NS(=O)(=O)c4ccc(NCC5CCC(C)(O)CC5)c([N+](=O)[O-])c4)c(Oc4cnc5[nH]ccc5c4)c3)CC2)C1 (stereo partly drawn) [Form F, 2-((1H-pyrrolo[2,3-b]pyridin-5-yl)oxy)-N-((4-((((1r,4r)-4-hydroxy-4-methylcyclohexyl)methyl)amino)-3-nitrophenyl)sulfonyl)-4-(2-((S)-2-(2-isopropylphenyl)pyrrolidin-1-yl)-7-azaspiro[3.5]nonan-7-yl)benzamide]
form change (XRPD overlay) [4, 7]: a mixture of Forms F and B was observed
form change (XRPD overlay) [4, 8]: a mixture of Forms F and B was observed
form change (XRPD overlay) ([4]; 80° C., sealed, 24 hrs): a mixture of Forms F and B was observed

CC(C)c1ccccc1[C@@H]1CCCN1C1CC2(CCN(c3ccc(C(=O)NS(=O)(=O)c4ccc(NCC5CCC(C)(O)CC5)c([N+](=O)[O-])c4)c(Oc4cnc5[nH]ccc5c4)c3)CC2)C1 (stereo partly drawn) [Form H, 2-((1H-pyrrolo[2,3-b]pyridin-5-yl)oxy)-N-((4-((((1r,4r)-4-hydroxy-4-methylcyclohexyl)methyl)amino)-3-nitrophenyl)sulfonyl)-4-(2-((S)-2-(2-isopropylphenyl)pyrrolidin-1-yl)-7-azaspiro[3.5]nonan-7-yl)benzamide]
form change (XRPD overlay) [4, 7]: no form change
form change (XRPD overlay) [4, 8]: no form change
form change (XRPD overlay) ([4]; 80° C., sealed, 24 hrs): an obvious decrease of crystallinity was observed

CC(C)c1ccccc1[C@@H]1CCCN1C1CC2(CCN(c3ccc(C(=O)NS(=O)(=O)c4ccc(NCC5CCC(C)(O)CC5)c([N+](=O)[O-])c4)c(Oc4cnc5[nH]ccc5c4)c3)CC2)C1 (stereo partly drawn) [Form K, 2-((1H-pyrrolo[2,3-b]pyridin-5-yl)oxy)-N-((4-((((1r,4r)-4-hydroxy-4-methylcyclohexyl)methyl)amino)-3-nitrophenyl)sulfonyl)-4-(2-((S)-2-(2-isopropylphenyl)pyrrolidin-1-yl)-7-azaspiro[3.5]nonan-7-yl)benzamide]
form change on storage (XRPD overlay) ([5]; RT, closed HPLC vial, ~5 weeks): converted to Form B of low crystallinity

CC(C)c1ccccc1[C@@H]1CCCN1C1CC2(CCN(c3ccc(C(=O)NS(=O)(=O)c4ccc(NCC5CCC(C)(O)CC5)c([N+](=O)[O-])c4)c(Oc4cnc5[nH]ccc5c4)c3)CC2)C1 (stereo partly drawn) [Form L, 2-((1H-pyrrolo[2,3-b]pyridin-5-yl)oxy)-N-((4-((((1r,4r)-4-hydroxy-4-methylcyclohexyl)methyl)amino)-3-nitrophenyl)sulfonyl)-4-(2-((S)-2-(2-isopropylphenyl)pyrrolidin-1-yl)-7-azaspiro[3.5]nonan-7-yl)benzamide]
form change on storage ([5]; storage at RT): converted to Form I

CC(C)c1ccccc1[C@@H]1CCCN1C1CC2(CCN(c3ccc(C(=O)NS(=O)(=O)c4ccc(NCC5CCC(C)(O)CC5)c([N+](=O)[O-])c4)c(Oc4cnc5[nH]ccc5c4)c3)CC2)C1 (stereo partly drawn) [Form M, 2-((1H-pyrrolo[2,3-b]pyridin-5-yl)oxy)-N-((4-((((1r,4r)-4-hydroxy-4-methylcyclohexyl)methyl)amino)-3-nitrophenyl)sulfonyl)-4-(2-((S)-2-(2-isopropylphenyl)pyrrolidin-1-yl)-7-azaspiro[3.5]nonan-7-yl)benzamide]
form change (XRPD overlay) [4, 7]: no form change
form change (XRPD overlay) [4, 8]: no form change
form change (XRPD overlay) ([4]; 80° C., sealed, 24 hrs): no form change

CC(C)c1ccccc1[C@@H]1CCCN1C1CC2(CCN(c3ccc(C(=O)NS(=O)(=O)c4ccc(NCC5CCC(C)(O)CC5)c([N+](=O)[O-])c4)c(Oc4cnc5[nH]ccc5c4)c3)CC2)C1 (stereo partly drawn) [Form N, 2-((1H-pyrrolo[2,3-b]pyridin-5-yl)oxy)-N-((4-((((1r,4r)-4-hydroxy-4-methylcyclohexyl)methyl)amino)-3-nitrophenyl)sulfonyl)-4-(2-((S)-2-(2-isopropylphenyl)pyrrolidin-1-yl)-7-azaspiro[3.5]nonan-7-yl)benzamide]
form change (XRPD overlay) [4, 7]: converted to Form T
form change (XRPD overlay) [4, 8]: converted to Form T
form change (XRPD overlay) ([4]; 80° C., sealed, 24 hrs): converted to Form T

CC(C)c1ccccc1[C@@H]1CCCN1C1CC2(CCN(c3ccc(C(=O)NS(=O)(=O)c4ccc(NCC5CCC(C)(O)CC5)c([N+](=O)[O-])c4)c(Oc4cnc5[nH]ccc5c4)c3)CC2)C1 (stereo partly drawn) [Form P, 2-((1H-pyrrolo[2,3-b]pyridin-5-yl)oxy)-N-((4-((((1r,4r)-4-hydroxy-4-methylcyclohexyl)methyl)amino)-3-nitrophenyl)sulfonyl)-4-(2-((S)-2-(2-isopropylphenyl)pyrrolidin-1-yl)-7-azaspiro[3.5]nonan-7-yl)benzamide]
form change on storage (XRPD comparison) ([5]; RT, ~4 weeks): some of the diffraction peaks disappeared

CC(C)c1ccccc1[C@@H]1CCCN1C1CC2(CCN(c3ccc(C(=O)NS(=O)(=O)c4ccc(NCC5CCC(C)(O)CC5)c([N+](=O)[O-])c4)c(Oc4cnc5[nH]ccc5c4)c3)CC2)C1 (stereo partly drawn) [Form R, 2-((1H-pyrrolo[2,3-b]pyridin-5-yl)oxy)-N-((4-((((1r,4r)-4-hydroxy-4-methylcyclohexyl)methyl)amino)-3-nitrophenyl)sulfonyl)-4-(2-((S)-2-(2-isopropylphenyl)pyrrolidin-1-yl)-7-azaspiro[3.5]nonan-7-yl)benzamide]
form change (XRPD overlay) [4, 7]: no form change was observed
form change (XRPD overlay) [4, 8]: no form change was observed
form change (XRPD overlay) ([4]; 80° C., sealed, 24 hrs): converted to a form which was similar to Form S

CC(C)c1ccccc1[C@@H]1CCCN1C1CC2(CCN(c3ccc(C(=O)NS(=O)(=O)c4ccc(NCC5CCC(C)(O)CC5)c([N+](=O)[O-])c4)c(Oc4cnc5[nH]ccc5c4)c3)CC2)C1 (stereo partly drawn) [Form S, 2-((1H-pyrrolo[2,3-b]pyridin-5-yl)oxy)-N-((4-((((1r,4r)-4-hydroxy-4-methylcyclohexyl)methyl)amino)-3-nitrophenyl)sulfonyl)-4-(2-((S)-2-(2-isopropylphenyl)pyrrolidin-1-yl)-7-azaspiro[3.5]nonan-7-yl)benzamide]
form change (XRPD overlay) [4, 7]: no form change
form change (XRPD overlay) [4, 8]: no form change
form change (XRPD overlay) ([4]; 80° C., sealed, 24 hrs): no form change

CC(C)c1ccccc1[C@@H]1CCCN1C1CC2(CCN(c3ccc(C(=O)NS(=O)(=O)c4ccc(NCC5CCC(C)(O)CC5)c([N+](=O)[O-])c4)c(Oc4cnc5[nH]ccc5c4)c3)CC2)C1 (stereo partly drawn) [Form U, 2-((1H-pyrrolo[2,3-b]pyridin-5-yl)oxy)-N-((4-((((1r,4r)-4-hydroxy-4-methylcyclohexyl)methyl)amino)-3-nitrophenyl)sulfonyl)-4-(2-((S)-2-(2-isopropylphenyl)pyrrolidin-1-yl)-7-azaspiro[3.5]nonan-7-yl)benzamide]
water sorption ([1]; listed as Compound 1 Form U): 1.4%
hygroscopicity ([1]; listed as Compound 1 Form U): slightly hygroscopicity
change of chemical purity ([2]; 25±2° C./60±5% RH and 40±2° C./75±5% RH, up to 6 months, listed as Compound 1 Form U): no significant change
total content of impurities ([2]; after 6 months at 40±2° C./75±5% RH, listed as Compound 1 Form U): 0.72%
total content of impurities ([2]; before storage (initial), listed as Compound 1 Form U): 0.40%
